Measured values taken from PubChem BioAssay AID1919007 (Molecular Pharmacology Branch, DTP, NCI, 2023).
Several values for one entry are separate records, joined by “and”; a condition that tells them apart may be missing. Identical values can stand only once.

Test system: A498 complex spheroids with HUVEC/MSC, growth
Experiment: Anticancer human tumor A498 cell line growth inhibition [AhR];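 further: seven day exposure starting three days after spheroid seeding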;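 on viability, T/C: luminescence signal used as a surrogate for viable cells; luminescence viability scaled so 100% equals DMSO vehicle wells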
Details: for viability, T/C: stronger effect = lower value
How it was run: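 Agents were dosed in half-log steps down from roughly clinical Cmax, or from 10 microM where Cmax was unknown, alone and with AhR antagonists. Read-out: percent test/control growth of tumor spheroids containing HUVEC and MSC stromal cells.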

[1] = curve of first compound, second compound 0.1 µM
[2] = curve of first compound, second compound 0.316 µM
[3] = curve of first compound, second compound 1 µM
[4] = curve of first compound, second compound 3.16 µM
[5] = curve of first compound, second compound 10 µM
[6] = second compound 0.1 µM, first compound 0.0316 µM
[7] = second compound 0.1 µM, first compound 0.1 µM
[8] = second compound 0.1 µM, first compound 0.316 µM
[9] = second compound 0.1 µM, first compound 1 µM
[10] = second compound 0.1 µM, first compound 3.16 µM
[11] = second compound 0.1 µM, first compound 10 µM
[12] = second compound 0.316 µM, first compound 0.0316 µM
[13] = second compound 0.316 µM, first compound 0.1 µM
[14] = second compound 0.316 µM, first compound 0.316 µM
[15] = second compound 0.316 µM, first compound 1 µM
[16] = second compound 0.316 µM, first compound 3.16 µM
[17] = second compound 0.316 µM, first compound 10 µM
[18] = second compound 1 µM, first compound 0.0316 µM
[19] = second compound 1 µM, first compound 0.1 µM
[20] = second compound 1 µM, first compound 0.316 µM
[21] = second compound 1 µM, first compound 1 µM
[22] = second compound 1 µM, first compound 3.16 µM
[23] = second compound 1 µM, first compound 10 µM
[24] = second compound 3.16 µM, first compound 0.0316 µM
[25] = second compound 3.16 µM, first compound 0.1 µM
[26] = second compound 3.16 µM, first compound 0.316 µM
[27] = second compound 3.16 µM, first compound 1 µM
[28] = second compound 3.16 µM, first compound 3.16 µM
[29] = second compound 3.16 µM, first compound 10 µM
[30] = second compound 10 µM, first compound 0.0316 µM
[31] = second compound 10 µM, first compound 0.1 µM
[32] = second compound 10 µM, first compound 0.316 µM
[33] = second compound 10 µM, first compound 1 µM
[34] = second compound 10 µM, first compound 3.16 µM
[35] = second compound 10 µM, first compound 10 µM

## COc1cc(Nc2ncc3c(n2)-c2ccc(Cl)cc2C(c2c(F)cccc2OC)=NC3)ccc1C(=O)O + Cc1ccccc1N=Nc1ccc(NC(=O)c2ccnn2C)c(C)c1
[1]
  IC50: 1920 nM
[2]
  IC50: 1830 nM
[3]
  IC50: 1510 nM
[4]
  IC50: 1350 nM
[5]
  IC50: 2550 nM
[6]
  viability, T/C: 70.2%
[7]
  viability, T/C: 73%
[8]
  viability, T/C: 65.8%
[9]
  viability, T/C: 54.4%
[10]
  viability, T/C: 46.6%
[11]
  viability, T/C: 33.5%
[12]
  viability, T/C: 70%
[13]
  viability, T/C: 72.4%
[14]
  viability, T/C: 70.7%
[15]
  viability, T/C: 54.9%
[16]
  viability, T/C: 45.2%
[17]
  viability, T/C: 34.2%
[18]
  viability, T/C: 67.8%
[19]
  viability, T/C: 67.2%
[20]
  viability, T/C: 59.6%
[21]
  viability, T/C: 56.5%
[22]
  viability, T/C: 41.3%
[23]
  viability, T/C: 31.8%
[24]
  viability, T/C: 69.2%
[25]
  viability, T/C: 72.7%
[26]
  viability, T/C: 62.2%
[27]
  viability, T/C: 49.9%
[28]
  viability, T/C: 44.8%
[29]
  viability, T/C: 31.8%
[30]
  viability, T/C: 63.9%
[31]
  viability, T/C: 63.4%
[32]
  viability, T/C: 56.7%
[33]
  viability, T/C: 59%
[34]
  viability, T/C: 47.9%
[35]
  viability, T/C: 35.1%

## Nc1ncn(C2CC(O)C(CO)S2)c(=O)n1 (centres undefined)
Compound 0.000949 µM
  viability, T/C: 100% and 102% and 109%
Compound 0.003 µM
  viability, T/C: 99.7% and 106% and 114%
Compound 0.00949 µM
  viability, T/C: 94.9% and 101% and 108%
Compound 0.03 µM
  viability, T/C: 97.8% and 105% and 96%
Compound 0.0949 µM
  viability, T/C: 79.2% and 95.2% and 85%
Compound 0.3 µM
  viability, T/C: 81% and 89.7% and 68.3%
Curve of compound
  IC50: > 300 nM

## O=C(C=Cn1cnc(-c2cc(C(F)(F)F)cc(C(F)(F)F)c2)n1)NNc1cnccn1
Compound 0.00949 µM
  viability, T/C: 99.2% and 101% and 90.7%
Compound 0.03 µM
  viability, T/C: 94.7% and 85.9% and 72.4%
Compound 0.0949 µM
  viability, T/C: 49.8% and 49% and 42.5%
Compound 0.3 µM
  viability, T/C: 34.6% and 34.1% and 25.4%
Compound 0.949 µM
  viability, T/C: 26.4% and 25% and 20.6%
Compound 3 µM
  viability, T/C: 23.9% and 17% and 14.4%
Curve of compound
  IC50: 99.9 nM and 111 nM and 72.8 nM

## COc1cc(C2c3cc4c(cc3C(OC3OC5COC(C)OC5C(O)C3O)C3COC(=O)C23)OCO4)cc(OC)c1O (centres undefined) + CC(CO)NC(=O)c1cc(-c2ccc(Cl)cc2)nn(-c2cnn(C)c2)c1=O
[1]
  IC50: 2970 nM
[2]
  IC50: 2080 nM
[3]
  IC50: 1560 nM
[4]
  IC50: 1080 nM
[5]
  IC50: 400 nM
[6]
  viability, T/C: 74.1%
[7]
  viability, T/C: 81.2%
[8]
  viability, T/C: 69.4%
[9]
  viability, T/C: 57.7%
[10]
  viability, T/C: 52.5%
[11]
  viability, T/C: 42.2%
[12]
  viability, T/C: 74.2%
[13]
  viability, T/C: 73.1%
[14]
  viability, T/C: 68%
[15]
  viability, T/C: 52.9%
[16]
  viability, T/C: 49.8%
[17]
  viability, T/C: 40.1%
[18]
  viability, T/C: 66.7%
[19]
  viability, T/C: 77%
[20]
  viability, T/C: 71.3%
[21]
  viability, T/C: 53.3%
[22]
  viability, T/C: 47.3%
[23]
  viability, T/C: 40.3%
[24]
  viability, T/C: 64.4%
[25]
  viability, T/C: 66.7%
[26]
  viability, T/C: 64.5%
[27]
  viability, T/C: 50.2%
[28]
  viability, T/C: 41.9%
[29]
  viability, T/C: 38.2%
[30]
  viability, T/C: 49.3%
[31]
  viability, T/C: 57.7%
[32]
  viability, T/C: 53.3%
[33]
  viability, T/C: 37.9%
[34]
  viability, T/C: 37.3%
[35]
  viability, T/C: 30.7%

## CC(C)CC(NC(=O)C(Cc1ccccc1)NC(=O)c1cnccn1)B(O)O (centres undefined) + CC(CO)NC(=O)c1cc(-c2ccc(Cl)cc2)nn(-c2cnn(C)c2)c1=O
[1]
  IC50: 2.95 nM
[2]
  IC50: 3.2 nM
[3]
  IC50: 2.67 nM
[4]
  IC50: 2.13 nM
[5]
  IC50: 1.57 nM
Second compound 0.1 µM, first compound 0.000949 µM
  viability, T/C: 91.1%
Second compound 0.1 µM, first compound 0.003 µM
  viability, T/C: 49.4%
Second compound 0.1 µM, first compound 0.00949 µM
  viability, T/C: 3.71%
Second compound 0.1 µM, first compound 0.03 µM
  viability, T/C: 0.58%
Second compound 0.1 µM, first compound 0.0949 µM
  viability, T/C: 2.33%
Second compound 0.1 µM, first compound 0.3 µM
  viability, T/C: 1.23%
Second compound 0.316 µM, first compound 0.000949 µM
  viability, T/C: 90%
Second compound 0.316 µM, first compound 0.003 µM
  viability, T/C: 52.6%
Second compound 0.316 µM, first compound 0.00949 µM
  viability, T/C: 4.62%
Second compound 0.316 µM, first compound 0.03 µM
  viability, T/C: 1.25%
Second compound 0.316 µM, first compound 0.0949 µM
  viability, T/C: 0.46%
Second compound 0.316 µM, first compound 0.3 µM
  viability, T/C: 1.14%
Second compound 1 µM, first compound 0.000949 µM
  viability, T/C: 87.2%
Second compound 1 µM, first compound 0.003 µM
  viability, T/C: 45.8%
Second compound 1 µM, first compound 0.00949 µM
  viability, T/C: 4.69%
Second compound 1 µM, first compound 0.03 µM
  viability, T/C: 1.75%
Second compound 1 µM, first compound 0.0949 µM
  viability, T/C: 1.82%
Second compound 1 µM, first compound 0.3 µM
  viability, T/C: 2.86%
Second compound 3.16 µM, first compound 0.000949 µM
  viability, T/C: 79.4%
Second compound 3.16 µM, first compound 0.003 µM
  viability, T/C: 37.6%
Second compound 3.16 µM, first compound 0.00949 µM
  viability, T/C: 5.03%
Second compound 3.16 µM, first compound 0.03 µM
  viability, T/C: 1.11%
Second compound 3.16 µM, first compound 0.0949 µM
  viability, T/C: 3.08%
Second compound 3.16 µM, first compound 0.3 µM
  viability, T/C: 0.24%
Second compound 10 µM, first compound 0.000949 µM
  viability, T/C: 65.7%
Second compound 10 µM, first compound 0.003 µM
  viability, T/C: 29.6%
Second compound 10 µM, first compound 0.00949 µM
  viability, T/C: 4.31%
Second compound 10 µM, first compound 0.03 µM
  viability, T/C: 0.81%
Second compound 10 µM, first compound 0.0949 µM
  viability, T/C: 2.81%
Second compound 10 µM, first compound 0.3 µM
  viability, T/C: 0.32%

## CC[C@@]1(O)C(=O)OCc2c1cc1n(c2=O)Cc2cc3c(CN(C)C)c(O)ccc3nc2-1 + CC(CO)NC(=O)c1cc(-c2ccc(Cl)cc2)nn(-c2cnn(C)c2)c1=O
[1]
  IC50: > 100 nM
[2]
  IC50: > 100 nM
[3]
  IC50: > 100 nM
[4]
  IC50: > 100 nM
[5]
  IC50: 75.7 nM
Second compound 0.1 µM, first compound 0.000316 µM
  viability, T/C: 105%
Second compound 0.1 µM, first compound 0.001 µM
  viability, T/C: 98.4%
Second compound 0.1 µM, first compound 0.00316 µM
  viability, T/C: 103%
Second compound 0.1 µM, first compound 0.01 µM
  viability, T/C: 94.6%
[6]
  viability, T/C: 86.7%
[7]
  viability, T/C: 68.2%
Second compound 0.316 µM, first compound 0.000316 µM
  viability, T/C: 93.2%
Second compound 0.316 µM, first compound 0.001 µM
  viability, T/C: 102%
Second compound 0.316 µM, first compound 0.00316 µM
  viability, T/C: 96.4%
Second compound 0.316 µM, first compound 0.01 µM
  viability, T/C: 82.4%
[12]
  viability, T/C: 81.3%
[13]
  viability, T/C: 64.8%
Second compound 1 µM, first compound 0.000316 µM
  viability, T/C: 95.8%
Second compound 1 µM, first compound 0.001 µM
  viability, T/C: 106%
Second compound 1 µM, first compound 0.00316 µM
  viability, T/C: 100%
Second compound 1 µM, first compound 0.01 µM
  viability, T/C: 92.2%
[18]
  viability, T/C: 76.9%
[19]
  viability, T/C: 65.3%
Second compound 3.16 µM, first compound 0.000316 µM
  viability, T/C: 92%
Second compound 3.16 µM, first compound 0.001 µM
  viability, T/C: 87%
Second compound 3.16 µM, first compound 0.00316 µM
  viability, T/C: 88.6%
Second compound 3.16 µM, first compound 0.01 µM
  viability, T/C: 71.1%
[24]
  viability, T/C: 71.2%
[25]
  viability, T/C: 60.1%
Second compound 10 µM, first compound 0.000316 µM
  viability, T/C: 77%
Second compound 10 µM, first compound 0.001 µM
  viability, T/C: 74.2%
Second compound 10 µM, first compound 0.00316 µM
  viability, T/C: 76.6%
Second compound 10 µM, first compound 0.01 µM
  viability, T/C: 63.1%
[30]
  viability, T/C: 57.1%
[31]
  viability, T/C: 47.7%
